These results are taken from ChEMBL document CHEMBL1806483, “Discovery and SAR of 2-arylbenzotriazoles and 2-arylindazoles as potential treatments for Duchenne muscular dystrophy” (Bioorg Med Chem Lett, 2011).

pEC50: −log10 of the molar value. Converted amounts (≈) assume the structure as drawn.

Data set [1] can be described thus: Upregulation of utrophin transcription in mouse H2K cells after 48 hrs by luciferase reporter assay. Format: functional, cell-based.
The nature of data set [2]: Upregulation of utrophin transcription in mouse H2K cells at 10 uM after 48 hrs by luciferase reporter assay relative to 2-(4-(diethylamino)phenyl)-6-methyl-2H-benzo[d][1,2,3]triazol-5-amine. It is filed as functional, cell-based.
Data set [3] is described as follows: Upregulation of utrophin transcription in mouse H2K cells at 3 uM after 48 hrs by luciferase reporter assay relative to 2-(4-(diethylamino)phenyl)-6-methyl-2H-benzo[d][1,2,3]triazol-5-amine. It is filed as functional, cell-based.
The nature of data set [4]: Aqueous solubility of the compound in 0.01 M phosphate buffered saline at pH 7.4 after 2 hrs by turbidimetric method. Format: physicochemical.
Data set [5] can be described thus: Half life in human liver microsome by LC-MS/MS analysis. It is filed as ADME. Particulars: liver microsomes.
The nature of data set [6]: Upregulation of utrophin mRNA expression in mouse H2K cells after 72 hrs by RT-PCR analysis relative to control. Format: functional, cell-based.

The compound `CCN(CC)c1ccc(-n2nc3cc(C)c(NC(=O)C(C)C)cc3n2)cc1` showed a negative logarithm of the EC50 (pEC50) in data set [1] of less than 4.52.

As to `Cc1cc2nn(-c3ccc(Cl)cc3)nc2cc1NC(=O)c1cccnc1`, in data set [1], the negative-log EC50 (pEC50) was 5.51. For `CCS(=O)(=O)c1ccc2nn(-c3ccc(Cl)c(Cl)c3)nc2c1`, in data set [2], the Activity turned out to be 52%. In data set [1], `CS(=O)(=O)c1ccc2nn(-c3ccc(Cl)cc3)nc2c1` showed a pEC50 of 4.93. The same measure, in the same setting: under `Nc1ccc2nn(-c3ccc(Cl)cc3)nc2c1` stands less than 4.52; under `CCC(=O)Nc1cc2nn(-c3ccc(N(CC)CC)cc3)nc2cc1C`, less than 4.52; under `Cc1cc2nn(-c3ccc(Cl)cc3)nc2cc1NC(=O)C(C)C`, less than 4.52. Regarding `CC(C)C(=O)Nc1ccc2nn(-c3ccc(Cl)c(Cl)c3)nc2c1`, the Activity in data set [3] is 87%. Take `CCN(CC)c1ccc(-n2nc3ccc(N)cc3n2)cc1`: the negative-log EC50 (pEC50) in data set [1] is 6.15. Still for that read-out and setting: the figure for `CC(=O)Nc1ccc2nn(-c3ccc(Cl)cc3)nc2c1` is 5.74.

For the compound `CCS(=O)(=O)c1ccc2cn(-c3ccc(Cl)cc3)nc2c1`, the pEC50 in data set [1] was less than 4.52. Same read-out and setting: the figure for `CS(=O)(=O)c1ccc2cn(-c3ccc(Cl)cc3)nc2c1` is less than 4.52. The compound `CS(=O)(=O)c1ccc2nn(-c3ccc4ccccc4c3)nc2c1` registered an Activity in data set [3] of 63%. Still for that read-out and setting: the figure for `CCS(=O)(=O)c1ccc2nn(-c3ccc4ccccc4c3)nc2c1` is 73%. `CC(C)C(=O)Nc1ccc2nn(-c3ccc(Cl)cc3)nc2c1`: the pEC50 in data set [1] is 6.12. For the same compound, the kinetic solubility at 2 h in data set [4] was found to be 1 µM (≈ 0.315 µg/mL). This compound also gave a half-life in data set [5] of 4.85 h. In data set [1], `CCS(=O)(=O)c1ccc2oc(-c3ccc4ccccc4c3)nc2c1` [EZUTROMID] gave a pEC50 of 5.74. On to `CC(C)S(=O)(=O)c1ccc2cn(-c3ccc(Cl)cc3)nc2c1`, for which the Activity in data set [2] is 54%. In turn, `CC(C)C(=O)Nc1ccc2cn(-c3ccc(Cl)cc3)nc2c1` came in with an Activity in data set [6] of 138%. The negative logarithm of the EC50 (pEC50) in data set [1] is 5.76. This compound showed a solubility (kinetic) at 2 h in data set [4] of 3 µM (≈ 0.941 µg/mL). Further, the half-life in data set [5] turned out to be 3.3 h. For `CCN(CC)c1ccc(-n2nc3cc(C)c(NC(=O)c4ccco4)cc3n2)cc1`, the negative-log EC50 (pEC50) in data set [1] is less than 4.52.

For `CCS(=O)(=O)c1ccc2nn(-c3ccc(Cl)cc3)nc2c1`, in data set [1], the negative-log EC50 (pEC50) was less than 4.52.
